Test systems include Malme-3M; CCRF-CEM; OVCAR-8; UACC-62; UACC-257; SF-268; ACHN; KM12; A549; EKVX; COLO 205; NCI/ADR-RES; MCF7; NCI-H23; NCI-H226; IGROV-1; A498; OVCAR-5; SK-OV-3; OVCAR-4.
Holding throughout (test): NCI-60 cell line screen, 48 h

The results in this text go back to ChEMBL document CHEMBL1201862, “PubChem BioAssay data set” (2004).

Structures are written as SMILES.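 All cell lines were grown in 96-well plates and treated with compound for 48 hours. GI50 is the concentration that inhibits growth by half.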 Activity calls are given as the source filed them. Cut-off read from the data, not from the text of the source: active = GI50 up to about 1.1 µM and inactive = higher. A value given as a limit tells only on which side of the number the result lay.

In the case of `Oc1ccc(-c2nc3ccc(Cl)cc3s2)cc1`, the GI50 is 19.3 µM (inactive) in the assay on Malme-3M; 5.35 µM (inactive) in the assay with CCRF-CEM; 19.3 µM (inactive) in the assay on OVCAR-8; 16.9 µM (inactive) in the assay on UACC-62; 19.6 µM (inactive) in the assay with UACC-257; 17.2 µM (inactive) with SF-268. In addition, the GI50 in the assay with ACHN is 76.7 µM (inactive); in the assay with KM12, 16.3 µM (inactive); with A549, 20.8 µM (inactive); in the assay with EKVX, 16.2 µM (inactive); with COLO 205, 17.7 µM (inactive); in the assay with NCI/ADR-RES it was 23.4 µM (inactive). Moreover, the GI50 with MCF7 is 7.41 µM (inactive); in the assay on NCI-H23 it was 18.3 µM (inactive); with NCI-H226 it was 20 µM (inactive); with IGROV-1, 16.5 µM (inactive); in the assay with A498, 20 µM (inactive); in the assay on OVCAR-5 it was 17.9 µM (inactive). Besides, the GI50 with SK-OV-3 is 20.2 µM (inactive).
On to `N#Cc1cc2cc3c4c(c2oc1=O)CCCN4CCC3`, for which the GI50 in the assay with CCRF-CEM, with OVCAR-8, with OVCAR-4, in the assay with UACC-62, in the assay with UACC-257 and in the assay with SF-268 was > 100 µM (inactive) in each case. Also, the GI50 with ACHN is > 100 µM (inactive); in the assay with KM12, > 100 µM (inactive); in the assay with A549, > 100 µM (inactive); in the assay with EKVX, 5.02 µM (inactive); in the assay on COLO 205, > 100 µM (inactive); with NCI/ADR-RES it was > 100 µM (inactive). The GI50 in the assay with MCF7, with NCI-H23, with NCI-H226, with IGROV-1, in the assay with A498 and in the assay with OVCAR-5 was > 100 µM (inactive) each time. Moreover, the GI50 in the assay on SK-OV-3 was > 100 µM (inactive).
Consider `C/C(=N\NC(=S)NC(C)(C)C)c1ccccn1`, for which the GI50 is 2.83 µM (inactive) in the assay on Malme-3M; < 0.01 µM (active) in the assay with CCRF-CEM; 4.1 µM (inactive) in the assay with OVCAR-4; 0.332 µM (active) with UACC-62; < 0.01 µM (active) in the assay on UACC-257; 1.39 µM (inactive) with SF-268. For the same compound, the GI50 with ACHN was < 0.01 µM (active); with KM12 it was 0.574 µM (active); in the assay on A549, 0.248 µM (active); in the assay with COLO 205, < 0.01 µM (active); with NCI/ADR-RES, < 0.01 µM (active); in the assay on MCF7, < 0.01 µM (active). For the same compound, the GI50 in the assay on NCI-H23 is < 0.0172 µM (active); with NCI-H226, 0.0675 µM (active); in the assay with IGROV-1, < 0.01 µM (active); in the assay with A498 it was 0.248 µM (active); with SK-OV-3 it was 0.305 µM (active).
With `S=C1NNC(=S)NN1`, the GI50 was 0.594 µM (active) with Malme-3M; 0.342 µM (active) with CCRF-CEM; > 1 µM (active) in the assay with OVCAR-8; > 1 µM (active) with OVCAR-4; 0.296 µM (active) with UACC-62; > 1 µM (active) in the assay on UACC-257. Moreover, the GI50 was 0.387 µM (active) in the assay on SF-268; 0.582 µM (active) with ACHN; > 1 µM (active) in the assay with KM12; > 1 µM (active) in the assay with A549; > 1 µM (active) in the assay with EKVX; > 1 µM (active) with COLO 205. For the same compound, the GI50 in the assay on NCI/ADR-RES was > 1 µM (active); in the assay on MCF7, 0.328 µM (active); in the assay with NCI-H23, 0.251 µM (active); in the assay with NCI-H226, > 1 µM (active); in the assay on IGROV-1, 0.436 µM (active); with A498 it was > 1 µM (active). Besides, in the assay with SK-OV-3, the GI50 is > 1 µM (active).
With `CSc1c(C#N)c(O)n(-c2ccc(Cl)cc2)c(=O)c1C(C)=O`, the GI50 in the assay on Malme-3M is 23.3 µM (inactive); in the assay on CCRF-CEM it was 17 µM (inactive); in the assay on OVCAR-8 it was 42.4 µM (inactive); in the assay on OVCAR-4, 37.5 µM (inactive); in the assay with UACC-62, 69.3 µM (inactive); in the assay with UACC-257, > 100 µM (inactive). Further, the GI50 with SF-268 is 61.7 µM (inactive); in the assay with KM12, > 100 µM (inactive); in the assay on A549, 50.2 µM (inactive); with EKVX it was > 100 µM (inactive); in the assay on COLO 205, 24.2 µM (inactive); in the assay on NCI/ADR-RES, 38.4 µM (inactive). Moreover, the GI50 in the assay on MCF7 is 52.4 µM (inactive); with NCI-H23 it was 31.5 µM (inactive); in the assay with NCI-H226, 26.9 µM (inactive); in the assay on A498 it was 29.3 µM (inactive); with OVCAR-5, 45.7 µM (inactive); with SK-OV-3, > 100 µM (inactive).
Take `CC(=O)NCCc1c(-c2[nH]c3ccccc3c2CCNC(C)=O)[nH]c2ccccc12`: the GI50 with CCRF-CEM is > 100 µM (inactive); in the assay with OVCAR-8 it was 78.2 µM (inactive); in the assay on OVCAR-4, 49.2 µM (inactive); with UACC-62, > 100 µM (inactive); with UACC-257, > 100 µM (inactive); in the assay on SF-268 it was > 100 µM (inactive). The GI50 with ACHN was 66.7 µM (inactive); in the assay with A549, > 100 µM (inactive); in the assay with EKVX, > 100 µM (inactive); in the assay with COLO 205, > 100 µM (inactive); in the assay on NCI/ADR-RES, 87.1 µM (inactive); in the assay with MCF7 it was > 100 µM (inactive). Also, the GI50 in the assay on NCI-H23 is > 100 µM (inactive); in the assay on NCI-H226, > 100 µM (inactive); with IGROV-1, 24.6 µM (inactive); in the assay on A498, 74.8 µM (inactive); with OVCAR-5 it was 66.7 µM (inactive); with SK-OV-3, 51.2 µM (inactive).
As to `Fc1ccc2nc3n(c2c1)C(c1c(F)cccc1F)SC3` (configuration not stated), the GI50 is > 100 µM (inactive) in the assay on Malme-3M; 65.6 µM (inactive) in the assay on OVCAR-8; 64.3 µM (inactive) with OVCAR-4; 82.4 µM (inactive) in the assay on UACC-62; 47.8 µM (inactive) with UACC-257; > 100 µM (inactive) in the assay with SF-268. The GI50 with ACHN was 67.9 µM (inactive); in the assay with KM12 it was 39.4 µM (inactive); with A549 it was 58.3 µM (inactive); with COLO 205 it was 45.2 µM (inactive); with NCI/ADR-RES, 31.6 µM (inactive); with MCF7, 39.9 µM (inactive). Also, the GI50 with NCI-H23 is 55 µM (inactive); with NCI-H226, > 100 µM (inactive); with IGROV-1, > 100 µM (inactive); in the assay with A498 it was 65.5 µM (inactive); with OVCAR-5 it was 8.69 µM (inactive); in the assay on SK-OV-3, 54.8 µM (inactive).
As to `Cc1cn2c(/C=N/NC(=N)N)c(-c3ccc([N+](=O)[O-])cc3)nc2s1`, the GI50 in the assay on Malme-3M was 1.39 µM (inactive); with CCRF-CEM, 0.194 µM (active); with OVCAR-8, 0.149 µM (active); in the assay with OVCAR-4, 0.169 µM (active); in the assay on UACC-62 it was 1.72 µM (inactive); in the assay with UACC-257 it was 1.18 µM (inactive). Besides, the GI50 with SF-268 was 1.64 µM (inactive); in the assay with ACHN, 1.49 µM (inactive); in the assay with KM12 it was 0.401 µM (active); in the assay on A549, 1.66 µM (inactive); with EKVX it was 0.338 µM (active); with COLO 205, 0.685 µM (active). The GI50 was 4.04 µM (inactive) in the assay with NCI/ADR-RES; 0.252 µM (active) with MCF7; 1.59 µM (inactive) in the assay with NCI-H23; 1.87 µM (inactive) in the assay on NCI-H226; 1.52 µM (inactive) in the assay on A498; 0.785 µM (active) with OVCAR-5. In addition, in the assay with SK-OV-3, the GI50 was 1.76 µM (inactive).
For the compound `Cn1c(=S)[nH]c2sc3c(c2c1=O)CCSC3`, the GI50 with Malme-3M was 58.2 µM (inactive); with OVCAR-8, 39.8 µM (inactive); with OVCAR-4, 43 µM (inactive); with UACC-62 it was 24.8 µM (inactive); with UACC-257 it was 41.8 µM (inactive); in the assay on SF-268, 26.2 µM (inactive). Also, the GI50 was 42.9 µM (inactive) with ACHN; 32.1 µM (inactive) in the assay on KM12; 43.1 µM (inactive) with A549; 20.8 µM (inactive) with EKVX; 47.1 µM (inactive) in the assay on COLO 205; 31.3 µM (inactive) in the assay on NCI/ADR-RES. Further, the GI50 in the assay on MCF7 is 44.3 µM (inactive); in the assay on NCI-H23 it was 36.9 µM (inactive); with NCI-H226 it was 22 µM (inactive); in the assay on IGROV-1 it was 23.9 µM (inactive); with A498 it was 31.6 µM (inactive); in the assay on OVCAR-5, 53.7 µM (inactive). In addition, the GI50 with SK-OV-3 was 90.8 µM (inactive).
Take `CCOC(=O)/C(=N\OC)C(O)C(F)(F)F` (configuration not stated): the GI50 with Malme-3M, in the assay on CCRF-CEM, with OVCAR-8, with UACC-62, in the assay with UACC-257 and in the assay on SF-268 was > 100 µM (inactive) in each case. Also, the GI50 with ACHN, in the assay on KM12, in the assay on A549, in the assay on EKVX, with COLO 205 and in the assay with NCI/ADR-RES was > 100 µM (inactive) in each case. The GI50 in the assay on MCF7, in the assay on NCI-H23, in the assay on NCI-H226, in the assay on IGROV-1, in the assay with A498 and with OVCAR-5 was > 100 µM (inactive) each time. Also, the GI50 in the assay on SK-OV-3 was > 100 µM (inactive).
In the case of `CCCCCCCCCCCCCCCCOP(=O)(O)OCC(NC(C)=O)C(=O)O` (configuration not stated), the GI50 with Malme-3M was > 100 µM (inactive); in the assay on OVCAR-8 it was > 100 µM (inactive); with OVCAR-4 it was 25.9 µM (inactive); in the assay with UACC-257, 54.1 µM (inactive); in the assay with SF-268, 31 µM (inactive); in the assay on ACHN it was > 100 µM (inactive). Moreover, the GI50 in the assay with A549 is > 100 µM (inactive); in the assay on EKVX, > 100 µM (inactive); with COLO 205, > 100 µM (inactive); in the assay on NCI/ADR-RES, > 100 µM (inactive); in the assay on MCF7 it was > 100 µM (inactive); in the assay on NCI-H23, 33 µM (inactive). Moreover, the GI50 is 76 µM (inactive) in the assay on NCI-H226; 24.3 µM (inactive) in the assay with IGROV-1; 32.4 µM (inactive) in the assay on A498; > 100 µM (inactive) in the assay with OVCAR-5; > 100 µM (inactive) in the assay with SK-OV-3.
